Patent US10525016B2, “Nutritional compositions containing an elevated level of inositol and uses thereof” (Mead Johnson Nutrition Company, priority 2015, dated 2020)

Legend:
oligodendrocytes (Oligo) = assay: inositol on purified oligodendroglial cultures: Oligo number (MBP staining); type: cell-based
Procedure: FIG. 1 illustrates the functional implications of inositol in oligodendroglia survival and proliferation. Inositol was added to purified oligodendroglial cultures and cells were analyzed for effects on proliferation, survival and differentiation by immunohistochemistry under the fluorescent microscopy. OPCs were analyzed by staining with antibody against PDGFRa and visualized in green fluorescence; and oligodendrocytes with that against MBP in red. […] Depletion of inositol in the medium results in a fifty percent loss of oligodendrocyte precursor cells and thirty percent loss in oligodendrocytes.
It may relate to the different mechanisms by which the OPCs respond to higher level of inositol and to the PDGF. Taken together, it is a novel finding that inositol at higher level promotes OPCs differentiation into mature Oligo.

[1] = tested on: primary hippocampal neurons; assay: synaptic development in primary hippocampal neurons (Bassoon/Homer immunostaining); type: cell-based, rats
Procedure: Primary hippocampal neurons were prepared from rats at E18. In brief, dissected hippocampi were incubated in 0.05% trypsin at 37° C. for 20 minutes and plated at a density of ˜30,000 cells per coverslip. Dissociated cells were plated on poly-L-lysine and incubated in a cell culture incubator with 5.0% CO2. Cytosine arabinoside was added at a final concentration of 2 μM per well 2 days in vitro to prevent glia cell overgrowth. For studies of inositol, neurons were either grown in inositol-free medium or in inositol-free medium supplemented with 40 μm inositol. After day 4 in vitro, neurons were grown either in inositol-free medium or in inositol-free medium supplemented with 40 μm or 200 μM inositol. At the first time of treatment at 4 days in vitro, the entire medium was exchanged for fresh medium containing nutrients, or control medium without nutrients. At the time of subsequent nutrient additions, approximately ½ of the medium was exchanged and replaced with nutrient-containing medium or control medium without nutrients. Neurons were processed for immunostaining at 14 days in vitro, i.e. after 10 days of chronic treatment. […] We determined this both by automated quantitative immunostaining for the presynaptic marker Bassoon or excitatory postsynaptic Homer, as shown in FIGS. 6 and 7 (p<0.05). […] Further, the experiment supports that the size of postsynaptic sites is larger when inositol is added, indicating more efficient synaptic transmission (p<0.05) (see, FIG. 9). Confocal imaging was performed on a Leica TCS SPE DM2500 microscope equipped with one spectral PMT. Fluorochromes imaged include Alexa 488, Alexa 555, and Alexa 647 (Invitrogen). Green fluorescence represents Bassoon presynaptic, red Homer postsynaptic, blue MAP2 dendrites. […] There was noticeable lack of growth and synapses which was visible while imaging.

[2] = tested on: oligodendrocyte-DRG cocultures; assay: dose-response of inositol on oligodendrocyte-DRG coculture: myelin deposition and extent; type: cell-based
Procedure: FIG. 4 illustrates the utility of dual-fluorescence labeling of OPCs in green and oligodendrocytes (Oligo) in red (left), as well as myelin deposition along the DRG neuronal fibers in red (right). It is to examine a dose-response of the inositol on oligodendrocyte-DRG coculture. Inositol was added to purified oligodendrocyte-DRG cocultures and cells were analyzed for effects on proliferation, survival differentiation and myelination. […] FIG. 5 illustrates the inositol effects on the control myelin extent in a dose-responsive manner. In the coculture system, neurofibers were included to validate the effects on myelin extent. […] Taken together, oligodendroglia rely on neuronal inositol for survival, proliferation, differentiation and the instruction of the generation of the appropriate number of […] internodes and the extent of wrapping.

[3] = tested on: oligodendrocyte precursor cells (OPCs); assay: inositol on purified oligodendroglial cultures: OPC number (PDGFRa staining); type: cell-based
Procedure: FIG. 1 illustrates the functional implications of inositol in oligodendroglia survival and proliferation. Inositol was added to purified oligodendroglial cultures and cells were analyzed for effects on proliferation, survival and differentiation by immunohistochemistry under the fluorescent microscopy. OPCs were analyzed by staining with antibody against PDGFRa and visualized in green fluorescence; and oligodendrocytes with that against MBP in red. […] Depletion of inositol in the medium results in a fifty percent loss of oligodendrocyte precursor cells and thirty percent loss in oligodendrocytes. […] A culture condition containing 40 μM inositol in which the count of the numbers of living OPCs was normalized as 1, as a baseline control. The beginnings of culture of OPCs are equal in terms of OPC number in culture dish in all conditions. Inositol was added to each OPC culture at zero, 200 nM, 1 μM, 10 μM, 40 μM, 100 μM, and 200 μM. Since the OPCs only respond to platelet-derived growth factor PDGF, a potent mitogen, for proliferation, the condition containing 40 μM inositol and PDGF was set as a positive control. […] Such a positive effect reached about 70% of that in the positive control. […] The results are graphically illustrated in FIG. 2

[4] = increasing inositol from 40 μM to 200 μM, 14 days in vitro, p<0.05
[5] = depletion of inositol in the medium

PDGF [reference compound]
Oligo number vs baseline at 40 μM inositol (oligodendrocytes (Oligo); condition containing PDGF with 40 μM inositol, p<0.05): decreased significantly

O[C@H]1[C@H](O)[C@@H](O)[C@H](O)[C@@H](O)[C@H]1O [inositol]
health of the neurons (confocal imaging) ([1]; depletion of inositol): poor health of the neurons | formation of functional synapses and overall neuron health ([1]; elevated level of inositol supplement): significantly enhances the formation of functional synapses and overall neuron health | density of synaptic specializations, excitatory postsynaptic Homer [1, 4]: substantially elevates | density of synaptic specializations, presynaptic marker Bassoon [1, 4]: substantially elevates | overall health of neurons (confocal imaging) ([1]; inositol 40 μM): significantly promotes the overall health of neurons | overall health of neurons (confocal imaging) ([1]; inositol 200 μM): significantly promotes the overall health of neurons | density of synaptic sites where both Bassoon and Homer co-localize ([1]; inositol added, p<0.05): strong inositol effect | size of postsynaptic sites ([1]; inositol added, p<0.05): larger | myelin deposition along DRG neuronal fibers ([2]; absence of inositol): the amount of red labeling and appearance of myelin were inappropriate | myelin internodes formed (myelin extent) ([2]; absence of inositol, compared to control base medium at 40 μM): few myelin internodes were formed | myelin deposition along DRG neuronal fibers ([2]; baseline condition, 40 μM inositol): myelin was wrapping around the neuronal fiber | myelin deposition along DRG neuronal fibers ([2]; inositol 200 μM): more myelin has been deposited along the neuronal fibers | myelin internodes formed (myelin extent) ([2]; inositol 200 μM compared to the controls): more and longer myelin internodes | OPC and oligodendrocyte health ([3]; 200 μM compared to the 40 μM in the base medium): significantly increased | loss of oligodendrocyte precursor cells [3, 5]: fifty | quantification of OPCs vs baseline control at 40 μM inositol ([3]; inositol 200 nM, p<0.05): significantly decreased | quantification of OPCs vs baseline control at 40 μM inositol ([3]; inositol 1 μM, p<0.05): significantly decreased | quantification of OPCs vs baseline control at 40 μM inositol ([3]; inositol 10 μM, p<0.05): significantly decreased | positive effect on OPCs number relative to the positive control (40 μM inositol and PDGF) ([3]; inositol 200 μM): about 70% | OPCs number vs baseline control at 40 μM inositol ([3]; inositol 200 μM, p<0.05): significantly increased | quantification of OPCs vs baseline control at 40 μM inositol ([3]; inositol at zero, p<0.05): significantly decreased | oligodendroglial survival ([3]; inositol supplementation in purified oligodendroglia cultures): significantly promotes oligodendroglial survival | overall response of OPC number to inositol ([3]; zero to 200 μM): dose-dependent manner | quantification of Oligo numbers vs baseline at 40 μM inositol (oligodendrocytes (Oligo); absence of inositol, p<0.05): significantly decreased | loss in oligodendrocytes (oligodendrocytes (Oligo); [5]): thirty | quantification of Oligo numbers vs baseline at 40 μM inositol (oligodendrocytes (Oligo); inositol 200 nM, p<0.05): significantly decreased | Oligo numbers vs baseline at 40 μM inositol (oligodendrocytes (Oligo); inositol 200 μM, p<0.05): rise and appear a statistical significance
